Key:
Test in all cases: KINOMEscan
Assay type in all cases: binding
Conditions in all cases: read-out: % Ctrl
FGFR3(G697C) = molecular target: T1, FGFR3(G697C) (Homo sapiens, UniProt P22607, G697C)
T1 construct: purchased DiscoveRx KINOMEscan

PFPK5(P.falciparum) = molecular target: T2, PFPK5(P.falciparum) (Plasmodium falciparum, UniProt P61075)
T2 construct: purchased DiscoveRx KINOMEscan

PIK3CA = molecular target: T3, PIK3CA (Homo sapiens, UniProt P42336)
T3 construct: purchased DiscoveRx KINOMEscan

PIK3CA(E542K) = molecular target: T4, PIK3CA(E542K) (Homo sapiens, UniProt P42336, E542K)
T4 construct: purchased DiscoveRx KINOMEscan

FLT3(R834Q) = molecular target: T5, FLT3(R834Q) (Homo sapiens, UniProt P36888, R834Q)
T5 construct: purchased DiscoveRx KINOMEscan

FRK = molecular target: T6, FRK (Homo sapiens, UniProt P42685)
T6 construct: purchased DiscoveRx KINOMEscan

AKT1 = molecular target: T7, AKT1 (Homo sapiens, UniProt P31749)
T7 construct: purchased DiscoveRx KINOMEscan

ALK = molecular target: T8, ALK (Homo sapiens, UniProt Q9UM73)
T8 construct: purchased DiscoveRx KINOMEscan

GRK7 = molecular target: T9, GRK7 (Homo sapiens, UniProt Q8WTQ7)
T9 construct: purchased DiscoveRx KINOMEscan

ALK(L1196M) = molecular target: T10, ALK(L1196M) (Homo sapiens, UniProt Q9UM73, L1196M)
T10 construct: purchased DiscoveRx KINOMEscan

PIP5K1A = molecular target: T11, PIP5K1A (Homo sapiens, UniProt Q99755)
T11 construct: purchased DiscoveRx KINOMEscan

ANKK1 = molecular target: T12, ANKK1 (Homo sapiens, UniProt Q8NFD2)
T12 construct: purchased DiscoveRx KINOMEscan

ASK1 = molecular target: T13, ASK1 (Homo sapiens, UniProt Q99683)
T13 construct: purchased DiscoveRx KINOMEscan

PKAC-alpha = molecular target: T14, PKAC-alpha (Homo sapiens, UniProt P17612)
T14 construct: purchased DiscoveRx KINOMEscan

IKK-beta = molecular target: T15, IKK-beta (Homo sapiens, UniProt O14920)
T15 construct: purchased DiscoveRx KINOMEscan

PLK4 = molecular target: T16, PLK4 (Homo sapiens, UniProt O00444)
T16 construct: purchased DiscoveRx KINOMEscan

JAK1(JH2D.-pseudoK.) = molecular target: T17, JAK1(JH2D.-pseudoK.) (Homo sapiens, UniProt P23458)
T17 construct: JAK1(JH2D.-pseudoK.); purchased DiscoveRx KINOMEscan

PRKG2 = molecular target: T18, PRKG2 (Homo sapiens, UniProt Q13237)
T18 construct: purchased DiscoveRx KINOMEscan

CAMK1B = molecular target: T19, CAMK1B (Homo sapiens, UniProt Q6P2M8)
T19 construct: purchased DiscoveRx KINOMEscan

CAMK2D = molecular target: T20, CAMK2D (Homo sapiens, UniProt Q13557)
T20 construct: purchased DiscoveRx KINOMEscan

CAMKK2 = molecular target: T21, CAMKK2 (Homo sapiens, UniProt Q96RR4)
T21 construct: purchased DiscoveRx KINOMEscan

RIPK1 = molecular target: T22, RIPK1 (Homo sapiens, UniProt Q13546)
T22 construct: purchased DiscoveRx KINOMEscan

CDK2 = molecular target: T23, CDK2 (Homo sapiens, UniProt P24941)
T23 construct: purchased DiscoveRx KINOMEscan

LRRK2 = molecular target: T24, LRRK2 (Homo sapiens, UniProt Q5S007)
T24 construct: purchased DiscoveRx KINOMEscan

MAP4K4 = molecular target: T25, MAP4K4 (Homo sapiens, UniProt O95819)
T25 construct: purchased DiscoveRx KINOMEscan

CLK4 = molecular target: T26, CLK4 (Homo sapiens, UniProt Q9HAZ1)
T26 construct: purchased DiscoveRx KINOMEscan

MAPKAPK2 = molecular target: T27, MAPKAPK2 (Homo sapiens, UniProt P49137)
T27 construct: purchased DiscoveRx KINOMEscan

MARK2 = molecular target: T28, MARK2 (Homo sapiens, UniProt Q7KZI7)
T28 construct: purchased DiscoveRx KINOMEscan

SRMS = molecular target: T29, SRMS (Homo sapiens, UniProt Q9H3Y6)
T29 construct: purchased DiscoveRx KINOMEscan

MELK = molecular target: T30, MELK (Homo sapiens, UniProt Q14680)
T30 construct: purchased DiscoveRx KINOMEscan

DAPK1 = molecular target: T31, DAPK1 (Homo sapiens, UniProt P53355)
T31 construct: purchased DiscoveRx KINOMEscan

DMPK2 = molecular target: T32, DMPK2 (Homo sapiens, UniProt Q6DT37)
T32 construct: purchased DiscoveRx KINOMEscan

MLK2 = molecular target: T33, MLK2 (Homo sapiens, UniProt Q02779)
T33 construct: purchased DiscoveRx KINOMEscan

DRAK2 = molecular target: T34, DRAK2 (Homo sapiens, UniProt O94768)
T34 construct: purchased DiscoveRx KINOMEscan

MRCKA = molecular target: T35, MRCKA (Homo sapiens, UniProt Q5VT25)
T35 construct: purchased DiscoveRx KINOMEscan

TESK1 = molecular target: T36, TESK1 (Homo sapiens, UniProt Q15569)
T36 construct: purchased DiscoveRx KINOMEscan

TLK2 = molecular target: T37, TLK2 (Homo sapiens, UniProt Q86UE8)
T37 construct: purchased DiscoveRx KINOMEscan

[1] = molecular target: T38, EGFR(L747-E749del, A750P) (Homo sapiens, UniProt P00533, A750P/DEL747-749)
T38 construct: purchased DiscoveRx KINOMEscan

TNNI3K = molecular target: T39, TNNI3K (Homo sapiens, UniProt Q59H18)
T39 construct: purchased DiscoveRx KINOMEscan

EIF2AK1 = molecular target: T40, EIF2AK1 (Homo sapiens, UniProt Q9BQI3)
T40 construct: purchased DiscoveRx KINOMEscan

NEK3 = molecular target: T41, NEK3 (Homo sapiens, UniProt P51956)
T41 construct: purchased DiscoveRx KINOMEscan

ERBB2 = molecular target: T42, ERBB2 (Homo sapiens, UniProt P04626)
T42 construct: purchased DiscoveRx KINOMEscan

ERK2 = molecular target: T43, ERK2 (Homo sapiens, UniProt P28482)
T43 construct: purchased DiscoveRx KINOMEscan

PAK4 = molecular target: T44, PAK4 (Homo sapiens, UniProt O96013)
T44 construct: purchased DiscoveRx KINOMEscan

T4 sequence (P42336 whole entry E542K): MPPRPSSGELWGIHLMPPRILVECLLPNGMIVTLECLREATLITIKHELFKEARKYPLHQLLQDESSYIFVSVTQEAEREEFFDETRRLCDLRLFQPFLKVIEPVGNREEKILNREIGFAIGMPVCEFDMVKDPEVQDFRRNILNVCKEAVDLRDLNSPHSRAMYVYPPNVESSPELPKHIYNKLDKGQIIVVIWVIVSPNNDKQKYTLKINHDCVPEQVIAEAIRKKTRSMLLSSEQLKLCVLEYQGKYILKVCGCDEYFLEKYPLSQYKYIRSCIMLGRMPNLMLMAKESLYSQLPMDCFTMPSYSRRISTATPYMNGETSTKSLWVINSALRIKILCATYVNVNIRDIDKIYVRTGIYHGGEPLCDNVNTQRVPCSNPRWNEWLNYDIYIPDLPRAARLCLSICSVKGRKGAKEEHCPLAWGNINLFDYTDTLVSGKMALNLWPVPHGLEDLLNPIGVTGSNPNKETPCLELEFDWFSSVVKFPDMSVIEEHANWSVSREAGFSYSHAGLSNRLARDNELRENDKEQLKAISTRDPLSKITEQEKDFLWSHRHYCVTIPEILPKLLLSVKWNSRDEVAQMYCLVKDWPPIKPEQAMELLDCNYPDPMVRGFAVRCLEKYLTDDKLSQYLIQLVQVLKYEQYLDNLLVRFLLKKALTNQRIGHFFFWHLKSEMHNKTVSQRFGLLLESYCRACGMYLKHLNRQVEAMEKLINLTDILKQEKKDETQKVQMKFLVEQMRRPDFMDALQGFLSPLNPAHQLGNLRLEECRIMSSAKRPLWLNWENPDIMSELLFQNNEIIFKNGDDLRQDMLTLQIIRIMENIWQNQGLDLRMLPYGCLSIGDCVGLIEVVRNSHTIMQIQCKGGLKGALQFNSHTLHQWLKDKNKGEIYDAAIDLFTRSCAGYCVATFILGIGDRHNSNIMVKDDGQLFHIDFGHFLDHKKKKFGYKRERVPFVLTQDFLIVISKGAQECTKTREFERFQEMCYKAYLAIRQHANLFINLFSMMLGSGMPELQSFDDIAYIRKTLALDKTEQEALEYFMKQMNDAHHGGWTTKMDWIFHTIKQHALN
T22 sequence (Q13546 whole entry): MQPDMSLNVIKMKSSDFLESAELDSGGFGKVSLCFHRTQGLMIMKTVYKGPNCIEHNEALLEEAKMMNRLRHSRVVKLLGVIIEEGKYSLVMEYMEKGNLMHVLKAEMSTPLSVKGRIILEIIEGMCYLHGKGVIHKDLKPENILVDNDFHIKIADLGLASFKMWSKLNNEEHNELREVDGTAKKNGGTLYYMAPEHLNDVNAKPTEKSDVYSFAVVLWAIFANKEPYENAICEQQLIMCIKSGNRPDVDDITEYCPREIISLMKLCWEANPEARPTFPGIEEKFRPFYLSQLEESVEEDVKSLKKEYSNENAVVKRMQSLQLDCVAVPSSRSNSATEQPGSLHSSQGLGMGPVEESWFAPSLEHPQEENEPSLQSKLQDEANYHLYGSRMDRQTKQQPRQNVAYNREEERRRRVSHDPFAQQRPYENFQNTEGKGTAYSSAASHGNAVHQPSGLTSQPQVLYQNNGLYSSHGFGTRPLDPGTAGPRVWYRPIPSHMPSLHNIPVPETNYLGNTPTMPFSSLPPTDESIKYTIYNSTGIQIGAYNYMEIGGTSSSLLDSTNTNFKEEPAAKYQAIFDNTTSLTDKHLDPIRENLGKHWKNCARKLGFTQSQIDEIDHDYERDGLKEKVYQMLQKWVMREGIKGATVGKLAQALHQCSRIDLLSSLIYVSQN
T34 sequence (O94768 whole entry): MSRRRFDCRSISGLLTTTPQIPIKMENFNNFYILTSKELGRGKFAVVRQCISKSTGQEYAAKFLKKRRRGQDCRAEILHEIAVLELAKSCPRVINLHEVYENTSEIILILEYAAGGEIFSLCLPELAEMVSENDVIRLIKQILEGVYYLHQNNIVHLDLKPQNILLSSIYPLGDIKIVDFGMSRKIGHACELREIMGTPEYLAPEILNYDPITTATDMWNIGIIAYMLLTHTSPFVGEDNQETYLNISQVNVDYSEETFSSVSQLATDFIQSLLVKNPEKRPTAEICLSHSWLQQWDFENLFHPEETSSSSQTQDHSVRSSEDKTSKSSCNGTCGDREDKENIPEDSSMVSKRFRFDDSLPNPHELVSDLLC
T26 sequence (Q9HAZ1 whole entry): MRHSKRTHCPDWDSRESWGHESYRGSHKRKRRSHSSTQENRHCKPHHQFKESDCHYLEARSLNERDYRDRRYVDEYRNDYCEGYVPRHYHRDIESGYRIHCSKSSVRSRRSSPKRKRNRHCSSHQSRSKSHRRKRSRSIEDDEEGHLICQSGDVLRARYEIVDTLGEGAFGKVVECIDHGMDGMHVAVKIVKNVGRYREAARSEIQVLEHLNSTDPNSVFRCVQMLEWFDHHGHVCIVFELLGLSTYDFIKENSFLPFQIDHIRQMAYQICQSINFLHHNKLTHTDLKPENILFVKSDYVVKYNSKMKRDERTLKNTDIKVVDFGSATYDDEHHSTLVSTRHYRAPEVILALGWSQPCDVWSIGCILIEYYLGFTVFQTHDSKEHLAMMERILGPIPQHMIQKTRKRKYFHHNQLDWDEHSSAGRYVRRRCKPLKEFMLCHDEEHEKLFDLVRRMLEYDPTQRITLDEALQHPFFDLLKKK
T31 sequence (P53355 whole entry): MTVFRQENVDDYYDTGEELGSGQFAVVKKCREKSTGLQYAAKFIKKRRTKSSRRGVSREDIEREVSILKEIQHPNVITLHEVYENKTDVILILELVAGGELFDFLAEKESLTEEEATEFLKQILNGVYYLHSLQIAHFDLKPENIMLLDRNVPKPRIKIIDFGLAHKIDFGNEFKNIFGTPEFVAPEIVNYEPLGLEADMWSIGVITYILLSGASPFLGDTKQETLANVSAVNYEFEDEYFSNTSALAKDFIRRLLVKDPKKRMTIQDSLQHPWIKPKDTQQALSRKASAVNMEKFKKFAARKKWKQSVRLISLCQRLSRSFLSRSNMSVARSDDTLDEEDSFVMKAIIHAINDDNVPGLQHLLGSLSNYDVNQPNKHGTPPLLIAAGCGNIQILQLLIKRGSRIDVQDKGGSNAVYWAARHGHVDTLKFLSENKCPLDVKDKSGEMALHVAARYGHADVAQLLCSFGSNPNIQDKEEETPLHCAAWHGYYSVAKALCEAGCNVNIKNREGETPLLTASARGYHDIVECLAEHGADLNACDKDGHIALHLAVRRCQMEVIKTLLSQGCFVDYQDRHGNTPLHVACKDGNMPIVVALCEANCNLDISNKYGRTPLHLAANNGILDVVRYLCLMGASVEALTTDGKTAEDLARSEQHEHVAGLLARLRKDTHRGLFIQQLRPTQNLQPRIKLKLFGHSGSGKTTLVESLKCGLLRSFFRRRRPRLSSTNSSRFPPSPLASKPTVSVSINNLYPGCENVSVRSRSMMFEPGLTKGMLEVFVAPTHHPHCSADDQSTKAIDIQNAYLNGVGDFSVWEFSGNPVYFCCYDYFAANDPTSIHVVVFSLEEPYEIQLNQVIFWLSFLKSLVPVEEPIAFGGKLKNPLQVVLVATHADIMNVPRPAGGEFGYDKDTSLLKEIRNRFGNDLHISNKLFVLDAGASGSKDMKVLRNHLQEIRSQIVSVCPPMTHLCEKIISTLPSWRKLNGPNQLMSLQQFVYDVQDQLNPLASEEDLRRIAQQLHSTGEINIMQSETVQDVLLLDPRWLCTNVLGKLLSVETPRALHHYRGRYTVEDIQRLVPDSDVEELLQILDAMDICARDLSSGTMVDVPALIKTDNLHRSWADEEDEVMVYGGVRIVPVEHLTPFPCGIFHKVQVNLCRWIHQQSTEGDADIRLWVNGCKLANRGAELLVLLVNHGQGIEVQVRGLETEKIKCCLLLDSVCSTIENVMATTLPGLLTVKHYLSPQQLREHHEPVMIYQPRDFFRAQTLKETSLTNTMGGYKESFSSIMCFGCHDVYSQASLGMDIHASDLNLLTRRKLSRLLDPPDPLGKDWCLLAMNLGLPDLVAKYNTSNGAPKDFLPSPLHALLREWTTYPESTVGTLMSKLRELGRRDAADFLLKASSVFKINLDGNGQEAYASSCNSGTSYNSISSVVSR
T37 sequence (Q86UE8 whole entry): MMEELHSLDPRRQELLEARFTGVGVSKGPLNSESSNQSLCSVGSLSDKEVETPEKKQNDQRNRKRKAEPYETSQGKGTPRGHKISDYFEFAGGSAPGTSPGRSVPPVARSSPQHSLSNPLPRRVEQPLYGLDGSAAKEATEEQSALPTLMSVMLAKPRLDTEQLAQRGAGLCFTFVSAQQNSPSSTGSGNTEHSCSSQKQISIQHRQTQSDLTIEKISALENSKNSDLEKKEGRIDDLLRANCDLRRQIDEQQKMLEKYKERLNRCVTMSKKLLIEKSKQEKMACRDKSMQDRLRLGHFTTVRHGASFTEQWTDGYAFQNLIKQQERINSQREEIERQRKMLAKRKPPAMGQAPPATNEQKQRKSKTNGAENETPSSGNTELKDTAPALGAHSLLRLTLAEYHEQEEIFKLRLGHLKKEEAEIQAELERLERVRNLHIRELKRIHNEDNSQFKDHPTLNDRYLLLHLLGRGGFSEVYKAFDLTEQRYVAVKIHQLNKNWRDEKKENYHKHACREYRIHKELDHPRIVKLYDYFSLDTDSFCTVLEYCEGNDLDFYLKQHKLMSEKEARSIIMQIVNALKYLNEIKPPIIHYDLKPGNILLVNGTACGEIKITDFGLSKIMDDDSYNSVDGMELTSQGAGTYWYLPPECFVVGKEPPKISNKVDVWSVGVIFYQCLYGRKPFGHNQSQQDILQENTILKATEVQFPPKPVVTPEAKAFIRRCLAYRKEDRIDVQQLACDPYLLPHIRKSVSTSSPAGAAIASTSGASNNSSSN
T3 sequence (P42336 whole entry): as the sequence (P42336 whole entry E542K) above, with K542E counted along it

## CN1CCC(CNc2ccc3ncc(C(=O)Nc4cccc(OC(F)(F)F)c4)n3n2)CC1 [Cpd 2]
FGFR3(G697C)
  remaining binding at 1 µM: 99%
PFPK5(P.falciparum)
  remaining binding at 1 µM: 97%
PIK3CA
  remaining binding at 1 µM: 100%
PIK3CA(E542K)
  remaining binding at 1 µM: 92%
FLT3(R834Q)
  remaining binding at 1 µM: 100%
FRK
  remaining binding at 1 µM: 100%
AKT1
  remaining binding at 1 µM: 100%
ALK
  remaining binding at 1 µM: 100%
GRK7
  remaining binding at 1 µM: 41%
ALK(L1196M)
  remaining binding at 1 µM: 100%
PIP5K1A
  remaining binding at 1 µM: 100%
ANKK1
  remaining binding at 1 µM: 94%
ASK1
  remaining binding at 1 µM: 100%
PKAC-alpha
  remaining binding at 1 µM: 99%
IKK-beta
  remaining binding at 1 µM: 100%
PLK4
  remaining binding at 1 µM: 82%
JAK1(JH2D.-pseudoK.)
  remaining binding at 1 µM: 100%
PRKG2
  remaining binding at 1 µM: 100%
CAMK1B
  remaining binding at 1 µM: 97%
CAMK2D
  remaining binding at 1 µM: 99%
CAMKK2
  remaining binding at 1 µM: 100%
RIPK1
  remaining binding at 1 µM: 100%
CDK2
  remaining binding at 1 µM: 100%
LRRK2
  remaining binding at 1 µM: 68%
MAP4K4
  remaining binding at 1 µM: 89%
CLK4
  remaining binding at 1 µM: 100%
MAPKAPK2
  remaining binding at 1 µM: 94%
MARK2
  remaining binding at 1 µM: 96%
SRMS
  remaining binding at 1 µM: 87%
MELK
  remaining binding at 1 µM: 100%
DAPK1
  remaining binding at 1 µM: 82%
DMPK2
  remaining binding at 1 µM: 97%
MLK2
  remaining binding at 1 µM: 100%
DRAK2
  remaining binding at 1 µM: 80%
MRCKA
  remaining binding at 1 µM: 100%
TESK1
  remaining binding at 1 µM: 90%
TLK2
  remaining binding at 1 µM: 100%
[1]
  remaining binding at 1 µM: 84%
TNNI3K
  remaining binding at 1 µM: 100%
EIF2AK1
  remaining binding at 1 µM: 95%
NEK3
  remaining binding at 1 µM: 100%
ERBB2
  remaining binding at 1 µM: 88%
ERK2
  remaining binding at 1 µM: 100%
PAK4
  remaining binding at 1 µM: 100%

Reference: PMC7407272, “Induction of Lysosome Membrane Permeabilization as a Therapeutic Strategy to Target Pancreatic Cancer Stem Cells” (Cancers, 2020)
